Laboratory results reported in PubChem BioAssay AID489040 (Sanford-Burnham Center for Chemical Genomics, 2010).
Activity calls are given as the source filed them.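 Rule for the calls: active = mean half-maximal activating concentration from the dose-response fit at or below a set limit; inactive = the rest.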

biological target: CHO-XBP1 luciferase reporter, IRE1-XBP1 UPR activation; assay: XBP1 luciferase reporter activation – CHO-XBP1 cells, luminescence, counter-screen for apoptotic UPR arm activators, dose response (AID 489040);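 note: reporter read after six hours of compound exposure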

Row | Compound | EC50
1 | COc1cc(C(=O)Nc2nc(-c3ccc(Cl)cc3)c(C)s2)ccc1OCC(=O)Nc1ccc(F)cc1 | > 80 µM (inactive)
2 | CCc1ccc(NC(=O)C(CC)Sc2nc3cc4c(cc3c(=O)n2Cc2ccco2)OCO4)cc1 (stereo not given) | > 80 µM (inactive)
3 | O=C(NCc1ccccc1Br)c1cccc2c1C(=O)c1ccc(-c3ccc(OC(F)(F)F)cc3)cc1S2(=O)=O | 17 µM
4 | CC1=C(CC/C(C)=N/NC(N)=S)C(C)(C)CCC1 | inactive
5 | COc1c(Cl)cc(Cl)cc1/C=C/C(=O)c1ccc(NC(=O)c2cccs2)cc1 | > 80 µM (inactive)
6 | Cc1cccc(Nc2nc3c(S(=O)(=O)c4ccccc4)nnn3c3ccccc23)c1C | inactive
7 | CCN(CC)S(=O)(=O)c1cc(NC(=O)Cn2ncc(Cl)c(Cl)c2=O)ccc1C | > 80 µM (inactive)
8 | COc1ccc(OC)c(Nc2nc(-c3ccc(O)c(O)c3)cs2)c1 | > 80 µM (inactive)
9 | Oc1ccc(CN2CCN(Cc3ccccc3)CC2)c2cccnc12 | > 80 µM (inactive)
10 | N#C/C(=C\c1ccc(OCc2ccccc2)cc1)C(=O)Nc1nc2c(s1)CCN(Cc1ccccc1)C2 | > 80 µM (inactive)
11 | O=C(c1ccc(Br)cc1)C(CN1CCOCC1)c1ccccc1 (stereo not given) | > 80 µM (inactive)
12 | Cc1cccc(-n2ncc(Cl)c(Cl)c2=O)c1 | > 80 µM (inactive)
13 | CC(C)C(=O)N1CCN(c2ccc(NC(=O)c3ccc([N+](=O)[O-])o3)cc2)CC1 | > 80 µM (inactive)
14 | O=C(Nc1ccc(Cc2ccncc2)cc1)c1ccc([N+](=O)[O-])o1 | > 80 µM (inactive)
15 | O=[N+]([O-])c1ccc(N/N=C/c2cccc(O)c2O)c(S(=O)(=O)N2CCOCC2)c1 | inactive
16 | Cc1ccc2[nH]cc(C(=O)CCl)c2c1 | > 80 µM (inactive)
17 | Cc1ccccc1S(=O)(=O)NC1OC(=O)C(Cl)=C1Cl (stereo not given) | > 80 µM (inactive)
18 | Cc1ccc2nc(-c3ccc(NC(=S)NC4CC(C)(C)NC(C)(C)C4)cc3)sc2c1 | > 80 µM (inactive)

Row | Compound | EC50
19 | Oc1cc(-c2ccncc2)cc2cccnc12 | > 80 µM (inactive)
20 | COc1ccc(CCNC(=O)c2coc(=O)c(Br)c2)cc1 | > 80 µM (inactive)
21 | COc1cc2nc(NC(=O)c3ccc(Cl)cc3)sc(=O)c2cc1OC | > 80 µM (inactive)
22 | COC(=O)c1cc(=O)n(Cc2ccco2)c(=Nc2ccc(F)c(Cl)c2)s1 | > 80 µM (inactive)
23 | O=C(Oc1c(CN2CCOCC2)cc(Cl)c2cccnc12)c1ccc(F)cc1 | > 80 µM (inactive)
24 | C=CCn1c(O)c(N=NC(=S)Nc2ccccc2F)c2cc(S(=O)(=O)N3CCOCC3)ccc21 | > 80 µM (inactive)
25 | O=C(Nc1ccc2oc(-c3ccc4ccccc4c3)nc2c1)c1ccc2c(c1)OCCO2 | inactive
26 | COc1cc(CNc2ccc3[nH]c(=O)[nH]c3c2)cc(Br)c1OCc1ccccc1F | > 80 µM (inactive)
27 | O=C1C(CSCc2ccccc2)NC(=S)N1c1ccccc1 (stereo not given) | > 80 µM (inactive)
28 | CN(/N=C\c1ccc(O)c(O)c1)c1nc(-c2ccccc2)cc(-c2ccccc2)n1 | 4.96 µM
29 | O=C(/C=C1\NC2(CCCC2)Cc2ccccc21)C(=O)N/N=C/c1ccc(O)c(O)c1 | 13.6 µM
30 | Cc1cc(C(=O)CCl)c(C)n1CCc1ccc(F)cc1 | > 80 µM (inactive)
31 | CN1C(=O)/C(=C/c2cccn2-c2ccc3ccccc3c2)C(=O)NC1=S | 7.87 µM
32 | O=C(/C=C/Sc1ccccc1)c1ccccc1 | > 80 µM (inactive)
33 | COC(=O)C1=C(C)N(c2ccc(C)c(C)c2)/C(=C/c2cccs2)C1=O | > 80 µM (inactive)
34 | CCOC(=O)CSc1cccc2cccnc12 | > 80 µM (inactive)
35 | CCc1cc2c(=O)[nH]c(-c3ccccn3)nc2s1 | > 80 µM (inactive)
